{"source": "patent US20230407243A1", "about": "“GENETIC PLATFORM TO INVESTIGATE THE FUNCTIONS OF BACTERIAL DRUG EFFLUX PUMPS” (priority 2022, published 2023)", "assay_type_in_all_cases": "cell-based, Escherichia coli", "key": {"EKO-35 acrBD408A": {"test_system": "EKO-35 acrBD408A", "conditions": "EKO-35 acrBD408A", "description": "(§1) Synergy measurement using checkerboard analysis was performed in 96-well microtiter plates using the microdilution broth method, according to CLSI guidelines (Patel J. B., 2015). The cell inocula were prepared using the colony resuspension method. The minimum inhibitory concentrations (MICs) were defined as the lowest concentration that provided no growth, as determined by measurement of the OD600nm using a Synergy H1 microplate reader (BioTek). Susceptibility testing was performed in MHB II with a final volume of 100 μL. PAI3N (Bachem Americas) was solubilized in MHB II. […] Solvent controls were included in each plate.\n(§2) The Fractional Inhibitory Concentration Index (FICI) was used to assess the synergy of PAI3N in combination with different antibiotics. The FICI represents the ΣFIC of each drug. The FICI for each drug was calculated using the following formula: FICI=FICA+FICB=(CA/MICA)+(CB/MICB). Where MICA and MICB are the MICs of drugs A (PAI3N/NMP) and B (antibiotic) alone, and CA and CB are the MICs of the drugs in combination. The effects of PAβN or NMP in combination with antibiotics were classified as: synergistic (FICI<0.5), additive (FICI>0.5-1.0), indifferent (FICI>1.0-2.0), and antagonistic (FICI>2.0). Fold increases in resistance provided by efflux pumps were calculated by dividing the MIC values of strains expressing efflux pumps by the MIC value of EKO-35."}, "EKO-35": {"test_system": "EKO-35", "description": "as §1, §2"}, "wild-type E. coli K-12": {"test_system": "wild-type E. coli K-12", "conditions": "K-12", "description": "as §1, §2"}, "ΔtolC-Pore": {"test_system": "ΔtolC-Pore", "description": "as §1, §2"}, "ΔtolC": {"test_system": "ΔtolC", "conditions": "ΔtolC", "description": "as §1, §2"}, "[1]": {"test_system": "EKO-35 strains producing different efflux pumps (EKO-35 araC::X)", "experiment": "Checkerboard synergy (FICI) of PAβN or NMP with antibiotics", "description": "as §1, §2"}, "[2]": {"test_system": "EKO-35 porinated strain expressing acrB", "experiment": "Checkerboard synergy (FICI), porinated strain", "conditions": "EKO-35 acrB Pore", "description": "as §1, §2"}, "[3]": {"test_system": "EKO-35 porinated strain expressing acrD", "experiment": "Checkerboard synergy (FICI), porinated strain", "conditions": "EKO-35 acrD Pore; NMP alone, one value per checkerboard", "description": "as §1, §2"}, "[4]": {"test_system": "EKO-35 porinated strain expressing acrF (AcrEF)", "experiment": "Checkerboard synergy (FICI), porinated strain", "conditions": "EKO-35 acrEF Pore; with Fusidic Acid", "description": "as §1, §2"}, "[5]": {"test_system": "EKO-35-Pore acrBD408A (functionally inactive AcrB variant)", "experiment": "Checkerboard synergy (FICI), porinated strain", "conditions": "EKO-35 acrBD408A Pore; with Ciprofloxacin", "description": "as §1, §2"}, "[6]": {"test_system": "EKO-35-Pore expressing the P. aeruginosa pump mexCD", "experiment": "Checkerboard synergy (FICI), porinated strain", "conditions": "EKO-35 mexCD Pore; with Erythromycin", "description": "as §1, §2"}, "[7]": {"test_system": "EKO-35-Pore strains producing other efflux pumps", "experiment": "Checkerboard synergy (FICI), porinated strain", "conditions": "EKO-35 mdtEF Pore; NMP alone, one value per checkerboard", "description": "as §1, §2"}, "EKO-35-Pore": {"test_system": "EKO-35-Pore", "experiment": "Checkerboard synergy (FICI), porinated strain", "conditions": "EKO-35 Pore; with Ethidium Bromide", "description": "as §1, §2"}, "wild-type K-12-Pore": {"test_system": "wild-type K-12-Pore", "experiment": "Checkerboard synergy (FICI), porinated strain", "conditions": "K-12 Pore", "description": "as §1, §2"}}, "note": "Where “and” joins values, the source holds several entries; their conditions need not be identical. Identical values can stand only once. Like-named read-outs stand apart in the source and are kept apart here."}
{"smiles": "c1ccc2c(CN3CCNCC3)cccc2c1", "note": "[NMP, 1-(1-naphthylmethyl)-piperazine]", "values": [{"measurement": "NMP MICa Combined", "setting": "EKO-35 acrBD408A; with Ciprofloxacin", "value": 64, "unit": "µg/mL"}, {"measurement": "NMP MICa Combined", "setting": "EKO-35 acrBD408A; with Linezolid", "value": 8, "unit": "µg/mL"}, {"measurement": "NMP MICa Combined", "setting": "EKO-35 acrBD408A; with Oxacillin", "value": 1024, "unit": "µg/mL"}, {"measurement": "NMP MICa Alone", "setting": "EKO-35; EKO-35, NMP alone, one value per checkerboard", "value": "512 µg/mL and 1024 µg/mL"}, {"measurement": "NMP MICa Combined", "setting": "EKO-35; EKO-35, with Ciprofloxacin", "value": 512, "unit": "µg/mL"}, {"measurement": "NMP MICa Combined", "setting": "EKO-35; EKO-35, with Erythromycin", "value": 256, "unit": "µg/mL"}, {"measurement": "NMP MICa Combined", "setting": "EKO-35; EKO-35, with Ethidium Bromide", "value": 512, "unit": "µg/mL"}, {"measurement": "NMP MICa Combined", "setting": "EKO-35; EKO-35, with Fusidic Acid", "value": 256, "unit": "µg/mL"}, {"measurement": "NMP MICa Combined", "setting": "EKO-35; EKO-35, with Linezolid", "value": 16, "unit": "µg/mL"}, {"measurement": "NMP MICa Combined", "setting": "EKO-35; EKO-35, with Oxacillin", "value": 256, "unit": "µg/mL"}, {"measurement": "susceptibility to the efflux pump inhibitor alone, efflux-deficient strains vs wild-type", "setting": "EKO-35; efflux-deficient strains EKO-35, EKO-35 acrBD408A, ΔtolC", "value": "comparable to the wild-type strain"}, {"measurement": "NMP MICa Combined", "setting": "wild-type E. coli K-12; with Ciprofloxacin", "value": 128, "unit": "µg/mL"}, {"measurement": "NMP MICa Combined", "setting": "wild-type E. coli K-12; with Erythromycin", "value": 128, "unit": "µg/mL"}, {"measurement": "NMP MICa Combined", "setting": "wild-type E. coli K-12; with Ethidium Bromide", "value": 64, "unit": "µg/mL"}, {"measurement": "NMP MICa Combined", "setting": "wild-type E. coli K-12; with Fusidic Acid", "value": 256, "unit": "µg/mL"}, {"measurement": "NMP MICa Combined", "setting": "wild-type E. coli K-12; with Linezolid", "value": 128, "unit": "µg/mL"}, {"measurement": "NMP MICa Combined", "setting": "wild-type E. coli K-12; with Oxacillin", "value": 64, "unit": "µg/mL"}, {"measurement": "NMP MICa Alone", "setting": "ΔtolC-Pore; ΔtolC Pore, NMP alone, one value per checkerboard", "value": 512, "unit": "µg/mL"}, {"measurement": "NMP MICa Combined", "setting": "ΔtolC-Pore; ΔtolC Pore, with Erythromycin", "value": 256, "unit": "µg/mL"}, {"measurement": "NMP MICa Combined", "setting": "ΔtolC-Pore; ΔtolC Pore, with Ethidium Bromide", "value": 128, "unit": "µg/mL"}, {"measurement": "NMP MICa Combined", "setting": "ΔtolC-Pore; ΔtolC Pore, with Linezolid", "value": 256, "unit": "µg/mL"}, {"measurement": "NMP MICa Combined", "setting": "ΔtolC-Pore; δtolC Pore, with Ciprofloxacin", "value": 256, "unit": "µg/mL"}, {"measurement": "NMP MICa Combined", "setting": "ΔtolC-Pore; δtolC Pore, with Fusidic Acid", "value": 128, "unit": "µg/mL"}, {"measurement": "NMP MICa Combined", "setting": "ΔtolC-Pore; δtolC Pore, with Oxacillin", "value": 16, "unit": "µg/mL"}, {"measurement": "NMP MICa Combined", "setting": "ΔtolC; with Ciprofloxacin", "value": 512, "unit": "µg/mL"}, {"measurement": "NMP MICa Combined", "setting": "ΔtolC; with Erythromycin", "value": 128, "unit": "µg/mL"}, {"measurement": "NMP MICa Combined", "setting": "ΔtolC; with Ethidium Bromide", "value": 32, "unit": "µg/mL"}, {"measurement": "NMP MICa Combined", "setting": "ΔtolC; with Fusidic Acid", "value": 256, "unit": "µg/mL"}, {"measurement": "NMP MICa Combined", "setting": "ΔtolC; with Linezolid", "value": 512, "unit": "µg/mL"}, {"measurement": "NMP MICa Combined", "setting": "ΔtolC; with Oxacillin", "value": 8, "unit": "µg/mL"}, {"measurement": "NMP MICa Combined", "setting": "[1]; EKO-35 acrB, with Erythromycin", "value": 8, "unit": "µg/mL"}, {"measurement": "NMP MICa Combined", "setting": "[1]; EKO-35 acrB, with Linezolid", "value": 64, "unit": "µg/mL"}, {"measurement": "NMP MICa Combined", "setting": "[1]; EKO-35 acrEF, with Ciprofloxacin", "value": 64, "unit": "µg/mL"}, {"measurement": "NMP MICa Combined", "setting": "[1]; EKO-35 acrEF, with Oxacillin", "value": 64, "unit": "µg/mL"}, {"measurement": "NMP MICa Combined", "setting": "[1]; EKO-35 mdtEF, with Erythromycin", "value": 64, "unit": "µg/mL"}, {"measurement": "NMP MICa Combined", "setting": "[1]; EKO-35 mexCD, with Erythromycin", "value": 16, "unit": "µg/mL"}, {"measurement": "NMP MICa Combined", "setting": "[2]; with Ethidium Bromide", "value": 32, "unit": "µg/mL"}, {"measurement": "NMP MICa Combined", "setting": "[2]; with Linezolid", "value": 64, "unit": "µg/mL"}, {"measurement": "NMP MICa Alone", "setting": "[3]", "value": 256, "unit": "µg/mL"}, {"measurement": "NMP MICa Combined", "setting": "[4]", "value": 64, "unit": "µg/mL"}, {"measurement": "NMP MICa Combined", "setting": "[5]", "value": 4, "unit": "µg/mL"}, {"measurement": "NMP MICa Combined", "setting": "[6]", "value": 64, "unit": "µg/mL"}, {"measurement": "NMP MICa Alone", "setting": "[7]", "value": 256, "unit": "µg/mL"}, {"measurement": "NMP MICa Combined", "setting": "EKO-35-Pore", "value": 4, "unit": "µg/mL"}, {"measurement": "NMP MICa Combined", "setting": "wild-type K-12-Pore; with Linezolid", "value": 64, "unit": "µg/mL"}, {"measurement": "NMP MICa Combined", "setting": "wild-type K-12-Pore; with Oxacillin", "value": 8, "unit": "µg/mL"}]}
